Measurements published in patent US20240018121A1, “NOVEL HETEROAROMATIC COMPOUNDS EXHIBITING ANTIFUNGAL ACTIVITY AND THEIR METHOD OF USE” (FOX CHASE CHEMCIAL DIVERSITY CENTER, INC., priority 2020, published 2024).
In brackets after ≈: the same amount, converted by molar mass. Where a name gives a salt, the structure may show the parent alone. Read-outs that look alike come from different tables or passages of the source.

Columns and labels:
Type in all cases: cell-based
[1] = tested on: Fusarium solani (ATCC 58877); assay: Fungal MIC Protocol, Fusarium solani; conditions: Fusarium solani, read-out: MIC Fusarium solani 58877
Procedure, shortened: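 Fusarium solani spores were grown on Potato Dextrose Agar in tissue culture flasks at 35° C. for 3-5 days, harvested with PBS pH 7.4+0.1% Tween-20 and glass beads, and diluted in RPMI/MOPS to an OD530 of 0.005 (about 2×10^4 cfu/mL). Equal 50 ul volumes of spores and serially diluted compound were combined in 96-well round bottom plates and incubated 48 hours at 35° C.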

[2] = tested on: Aspergillus flavus AFL1 (ATCC MYA-3631); assay: Fungal MIC Protocol, Aspergillus flavus; conditions: Aspergillus flavus, read-out: MIC Aspergillus flavus 3631
Procedure, shortened: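 Aspergillus flavus spores were grown on Potato Dextrose Agar at 35° C. for 3-5 days, harvested in PBS pH 7.4+0.1% Tween-20 with glass beads, and diluted in RPMI/MOPS to an OD530 of 0.002 (about 2×10^4 cfu/mL). 50 ul of spores were combined with 50 μl of serially diluted compound in 96-well round bottom plates and incubated at 35° C. for 48 hours.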

[3] = tested on: Fusarium falciforme FS1 (ATCC MYA-3636); assay: Fungal MIC Protocol, Fusarium falciforme; conditions: Fusarium falciforme, read-out: MIC Fusarium falciforme 3636
Procedure, shortened: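 Fusarium falciforme spores were raised on Potato Dextrose Agar at 35° C. for 3-5 days, collected in PBS pH 7.4+0.1% Tween-20 with glass beads, and diluted in RPMI/MOPS pH 7.0 to OD530 0.005 (about 2×10^4 cfu/mL). 50 ul spores were added to 50 μl duplicate serial compound dilutions in round bottom 96-well plates and incubated at 35° C. for 48 hours.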

[4] = tested on: Mucor ramosissimus 057718 (ATCC 90286); assay: Fungal MIC Protocol, Mucor ramosissimus (MIC-50); conditions: Mucor ramosissimus, read-out: MIC-50 Mucorales ramosissimus 90286
Procedure, shortened: (§1)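 Harvested spores, adjusted by OD530 to about 2×10^4 cfu/mL in RPMI/MOPS pH 7.0, are mixed with ten duplicate serial dilutions of compound. Incubation runs 48 h at 35° C before visual scoring of the lowest concentration inhibiting growth >50%.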

[5] = tested on: Mucor circinelloides 1463(62) (ATCC 26759); assay: Fungal MIC Protocol, Mucor circinelloides (MIC-50); conditions: Mucor circinelloides, read-out: MIC-50 Mucorales circinelloides 26579
Procedure, shortened: as §1

Candida albicans GDH2346 = assay: Candida Minimal Inhibitory Concentration (MIC); conditions: Candida albicans, read-out: MIC-50 Candida albicans GDH2346
Procedure, shortened: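 Twofold serial dilutions from 200 μg/mL in RPMI 1640/MOPS with glucose, pH 7.0, tested in duplicate against yeast from an OD600 1.0 suspension diluted 1:1000. Incubated at 35° C; OD600 read at 24 and 48 h.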

[6] = tested on: Aspergillus fumigatus T33439 (ATCC MYA-3626); assay: Fungal MIC Protocol, Aspergillus fumigatus; conditions: Aspergillus fumigatus, read-out: MIC Aspergillus fumigatus 3626
Procedure, shortened: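 Aspergillus fumigatus was grown on Potato Dextrose Agar at 35° C. for 3-5 days, and spores were collected with PBS pH 7.4+0.1% Tween-20 plus glass beads. Spores were diluted in RPMI/MOPS to OD530 0.002 (about 2×10^4 cfu/mL). 50 ul was added to 50 μl of serially diluted compound in round bottom 96-well plates, run in duplicate, and incubated at 35° C. for 48 hours.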

[7] = ATCC58877, 100% growth inhibition at 48 hours
[8] = 100% growth inhibition at 48 hours
[9] = ATCC90286, 50% growth inhibition at 48 hours
[10] = ATCC26759, 50% growth inhibition at 48 hours
[11] = GDH2346, 50% growth inhibition at 48 hours

Compound	MIC [1, 7]	MIC [2, 8]	MIC [3, 8]	MIC50 [4, 9]	MIC50 [5, 10]	MIC50 (Candida albicans GDH2346; [11])	MIC [6, 8]	MIC ([1]; ATCC58877, 48 h)	MIC ([2]; 48 h)	MIC ([3]; 48 h)	MIC50 ([4]; ATCC90286, 48 h)	MIC50 ([5]; ATCC26759, 48 h)	MIC50 (Candida albicans GDH2346; GDH2346, 48 h)	MIC ([6]; 48 h)
Cc1cc(-c2nnc(-c3ccc(C4=CCN(C(=N)N)CC4)c(C)c3)n2C)ccc1C1=CCN(C(=N)N)CC1 [Example 24, 4,4′-(4,4′-(4-Methyl-4H-1,2,4-triazole-3,5-diyl)bis(2-methyl-4,1-phenylene)) bis(5,6-dihydropyridine-1(2H)-carboximidamide)]	0.78 µg/mL (≈ 1.53 µM)	1.56 µg/mL (≈ 3.06 µM)	0.78 µg/mL (≈ 1.53 µM)	50 µg/mL (≈ 98.1 µM)	6.25 µg/mL (≈ 12.3 µM)	1.56 µg/mL (≈ 3.06 µM)	0.78 µg/mL (≈ 1.53 µM)	–	–	–	–	–	–	–
Cn1c(-c2ccc(C3CCN(C(=N)N)CC3)cc2)nnc1-c1ccc(C2CCN(C(=N)N)CC2)cc1 [Example 39, 4,4′-(4,4′-(4-Methyl-4H-1,2,4-triazole-3,5-diyl)bis(4,1-phenylene))dipiperidine-1-carboximidamide]	0.78 µg/mL (≈ 1.61 µM)	1.56 µg/mL (≈ 3.21 µM)	0.78 µg/mL (≈ 1.61 µM)	> 100 µg/mL	> 100 µg/mL	0.78 µg/mL (≈ 1.61 µM)	1.56 µg/mL (≈ 3.21 µM)	–	–	–	–	–	–	–
N=C(N)N1CC=C(c2ccc(-c3nnc(-c4ccc(C5=CCN(C(=N)N)CC5)cc4F)n3CCO)cc2)CC1 [Example 82, 4-(4-{5-[4-(1-carbamimidoyl-1,2,3,6-tetrahydropyridin-4-yl)-2-fluorophenyl]-4-(2-hydroxyethyl)-4H-1,2,4-triazol-3-yl}phenyl)-1,2,3,6-tetrahydropyridine-1-carboximidamide hydrochloride]	–	–	–	–	–	–	–	0.05 µg/mL	0.2 µg/mL	0.05 µg/mL	1.56 µg/mL	0.39 µg/mL	0.2 µg/mL	0.1 µg/mL
